Experimental data reported in publication PMC9951290, “Comprehensive Structure–Activity Relationship Studies of Cepafungin Enabled by Biocatalytic C–H Oxidations” (ACS Central Science, 2023).
pEC50, pIC50: −log10 of the molar value.

How the values were obtained:
[1] = target: T1, proteasome subunit β5 (Homo sapiens, UniProt P28074); assay: In situ β5 proteasome activity assay (Suc-LLVY-AMC) in RPMI 8226 cells; type: cell-based; conditions: RPMI 8226 cells
T1 construct: Following incubation of the compounds in cell culture for 6 h, cells were lysed; endogenous in cells; host or cells: RPMI 8226 (human multiple myeloma)
Description: A preliminary series of analogues, including the natural product glidobactin A (2), were synthesized by largely the same route (Scheme 2B, Figure 2).[36] Desoxycepafungin (38) was synthesized from Boc-Lys(Boc)-OH by peptide couplings/macrocyclization to assess the role of the macrocycle hydroxylation in 1 toward proteasome inhibition. The saturated cepafungin analogue 39 was designed to address the possible role of rigidity in the tail fragment induced by the diene seen in many natural cepafungins and glidobactins. An analogue bearing unsaturation at its macrocyclic lysine was envisioned to provide a head-to-head comparison between the cepafungin and syringolin macrocyclic core. […] Proteasome subunit β5 IC50 values were determined in situ in RPMI 8226 cells. In close agreement with prior measurement of β5 IC50 for natural 1 and 2 in purified yeast proteasome,[12] in our hands the additional branching methyl in 1 indeed leads to ca. 5-fold improved IC50 compared to 2 in RPMI 8226 cells. […] Likewise, saturation of the fatty acid fragment in 39 causes ca. 14-fold decrease in β5 inhibition. This preliminary series of analogues highlighted that the macrocyclic hydroxylation, fatty acid unsaturation, and terminal lipid functionality are critical for potent proteasome inhibitory activity.
Cellular assays were performed on human multiple myeloma RPMI 8226 cells (Figure 4). First, relative inhibition of proteasome subunits β5 and β2 for all analogues and the natural product was measured at 30 nM compound concentration. Following incubation of the compounds in cell culture for 6 h, cells were lysed, and fluorogenic subunit-specific peptide substrates Suc-LLVY-AMC (β5) or Ac-RLR-AMC (β2) were incubated with the lysates; fluorescence readings provided relative proteasome activity levels in comparison with DMSO (Figure 4A). Next, cytotoxicity screening was performed at 30 and 100 nM concentrations for sufficient coverage of dynamic range (Figure 4B). […] Therefore, the improved cytotoxicity of phenyl cepafungin 50 likely results from a more pronounced loss of β5 function in RPMI 8226 cells. This drastic increase in proteasome inhibition may be due to π-stacking of the lipid tail phenyl ring with the β6 subunit residues Tyr106 and/or Tyr5. The β2 subunit-bound natural product has residues Tyr102 and Phe103 on the adjacent β3 subunit oriented further away from the terminal lipid methyl groups, and presumably would not facilitate π-stacking to the extent possible at the adjacent β6 subunit (see Figure 3 and Figure S4). […] These combined modifications were made in hopes that the effects of both substitutions would be additive. […] The presence of a Thr residue next to the cepafungin macrocycle appears to be favored over the ethyl side chain of desoxy-Thr analogue 44 as indicated by cytotoxicity and hydrogen-bonding seen in the cepafungin-bound crystal structure (Figures 3 and 4B). […]
Mammalian cell culture and lysate preparation
Mammalian cells were maintained in RPMI-1640 media. All media were supplemented with 10% fetal bovine serum (FBS, Life Technologies Cat# 10437028), non-essential amino acids (Sigma-Aldrich Cat# M7145) and penicillin/streptomycin (Sigma-Aldrich Cat# P4333). Cells were grown at 37 °C under 5% CO2 atmosphere. […] Cells were lysed by needle sonication to obtain cell lysates and protein concentration was determined using the […]
fluorescence was read at A360ex/A460em. […]

[2] = system: RPMI 8226 cells; conditions: ∼3700 proteins quantified, 19 in common; cited from earlier work
[3] = system: proteasome subunits β2/2i, β5/5i, β1i, β1; conditions: in-gel labeling, cited from earlier work
[4] = system: RPMI 8226 cells; assay: Cytotoxicity measurement (WST-1), RPMI 8226; type: cell-based, human; conditions: Homo sapiens; RPMI 8226, 48 hours, WST-1, n = 3; read-out: Cytotoxicity EC50 (cell viability)
Procedure: Cellular assays were performed on human multiple myeloma RPMI 8226 cells (Figure 4). First, relative inhibition of proteasome subunits β5 and β2 for all analogues and the natural product was measured at 30 nM compound concentration. Following incubation of the compounds in cell culture for 6 h, cells were lysed, and fluorogenic subunit-specific peptide substrates Suc-LLVY-AMC (β5) or Ac-RLR-AMC (β2) were incubated with the lysates; fluorescence readings provided relative proteasome activity levels in comparison with DMSO (Figure 4A). Next, cytotoxicity screening was performed at 30 and 100 nM concentrations for sufficient coverage of dynamic range (Figure 4B). […] Therefore, the improved cytotoxicity of phenyl cepafungin 50 likely results from a more pronounced loss of β5 function in RPMI 8226 cells. This drastic increase in proteasome inhibition may be due to π-stacking of the lipid tail phenyl ring with the β6 subunit residues Tyr106 and/or Tyr5. The β2 subunit-bound natural product has residues Tyr102 and Phe103 on the adjacent β3 subunit oriented further away from the terminal lipid methyl groups, and presumably would not facilitate π-stacking to the extent possible at the adjacent β6 subunit (see Figure 3 and Figure S4). […] These combined modifications were made in hopes that the effects of both substitutions would be additive. […] The presence of a Thr residue next to the cepafungin macrocycle appears to be favored over the ethyl side chain of desoxy-Thr analogue 44 as indicated by cytotoxicity and hydrogen-bonding seen in the cepafungin-bound crystal structure (Figures 3 and 4B).
AMC (β5) or Ac-RLR-AMC (β2). […]
Cytotoxicity Measurements
in DMSO) or DMSO and cultured for 48 hours. Toxicity was determined using the WST-1 assay
(Roche) according to the protocol of the manufacturer. (n = 3)
Figure S1. […]

SMILES: CC(C)CCCCCC=CC=CC(=O)NC(C(=O)NC1CC(O)CCNC(=O)C=CC(C)NC1=O)C(C)O (stereo not shown) [compound 1, cepafungin I]
- fold improved β5 IC50 of 1 compared to 2 [1]: ca. 5 fold
- fold improved β5 inhibition of 1 compared to 38 [1]: ca. 11 fold
- pIC50 ([1]; 6 h, Suc-LLVY-AMC, n = 3, Figure 4D): 7.55
- number of proteins upregulated compared to DMSO control [2]: 88 proteins
- engagement of β1 ([3]; RPMI 8226, even at high concentrations): very little engagement
- competition for subunits β2/2i, β5/5i and β1i ([3]; RPMI 8226): low-nanomolar concentrations
- pEC50 [4]: 7.85
